Measurements from PubChem BioAssay AID330 (DTP/NCI, 2004).
Several values for one entry are separate records, joined by “and”; a condition that tells them apart may be missing. Equal values may be shown once. Toxic doses and inconclusive results are not listed. The calls were made as follows: active = survival T/C of 150% or more; inactive = T/C below 125% in these data.

Tested on: P388 leukemia ip, CD2F1 mice, survival T/C
Test: NCI In Vivo Anticancer Drug Screen. Data for tumor model P388 Leukemia (intraperitoneal) in CD2F1 (CDF1) mice
Details: endpoint: median survival time, higher = longer survival
Summary of the method: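 Mice carrying the transplanted tumor received test compound or vehicle. Survival was recorded in each group, and the value is the treated-group measurement divided by that of the vehicle-treated control group.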

[1] = dose: 25.0 mg/kg/injection, schedule: Q01DX001 (ip), vehicle: Klucel (hydroxypropylcellulose) (HPC)
[2] = dose: 50.0 mg/kg/injection, schedule: Q01DX009 (ip), vehicle: saline with Tween-80
[3] = dose: 100.0 mg/kg/injection, schedule: Q01DX009 (ip), vehicle: saline with Tween-80
[4] = dose: 200.0 mg/kg/injection, schedule: Q01DX009 (ip), vehicle: saline with Tween-80
[5] = dose: 100.0 mg/kg/injection, schedule: Q04DX003 (ip), vehicle: saline with Tween-80
[6] = dose: 200.0 mg/kg/injection, schedule: Q04DX003 (ip), vehicle: saline with Tween-80
[7] = dose: 400.0 mg/kg/injection, schedule: Q04DX003 (ip), vehicle: saline with Tween-80
[8] = dose: 60.0 mg/kg/injection, schedule: Q01DX005 (ip), vehicle: saline with Tween-80
[9] = dose: 120.0 mg/kg/injection, schedule: Q01DX005 (ip), vehicle: saline with Tween-80
[10] = dose: 240.0 mg/kg/injection, schedule: Q01DX005 (ip), vehicle: saline with Tween-80
[11] = dose: 30.0 mg/kg/injection, schedule: Q01DX005 (ip), vehicle: saline with Tween-80
[12] = dose: 60.0 mg/kg/injection, schedule: Q01DX005 (ip), vehicle: saline

Measured: T/C

C#CC1OC12CCC1C3CC=C4CC(O)CCC4(C)C3CCC12 (stereo not drawn)
inactive: dose: 50.0 mg/kg/injection, schedule: Q01DX009 (ip), vehicle: suspension in saline 93 % of control | dose: 100.0 mg/kg/injection, schedule: Q01DX009 (ip), vehicle: suspension in saline 94 % of control | dose: 200.0 mg/kg/injection, schedule: Q01DX009 (ip), vehicle: suspension in saline 87 % of control

CCCCCCCn1cnc2cc(N3CCOCC3)c([N+](=O)[O-])cc2c1=O
inactive: dose: 100.0 mg/kg/injection, schedule: Q04DX003 (ip), vehicle: Klucel (hydroxypropylcellulose) (HPC) 102 % of control | dose: 200.0 mg/kg/injection, schedule: Q04DX003 (ip), vehicle: Klucel (hydroxypropylcellulose) (HPC) 95 % of control | dose: 400.0 mg/kg/injection, schedule: Q04DX003 (ip), vehicle: Klucel (hydroxypropylcellulose) (HPC) 100 % of control

COc1ccccc1NC(=S)N/N=C\c1nc2ccccc2c2ccccc12
inactive: dose: 75.0 mg/kg/injection, schedule: Q04DX002 (ip), vehicle: Klucel (hydroxypropylcellulose) (HPC) 99 % of control | dose: 150.0 mg/kg/injection, schedule: Q04DX002 (ip), vehicle: Klucel (hydroxypropylcellulose) (HPC) 96 % of control | dose: 300.0 mg/kg/injection, schedule: Q04DX002 (ip), vehicle: Klucel (hydroxypropylcellulose) (HPC) 96 % of control

CCCCCOc1ccc(C(=O)Oc2ccc(N=Nc3nccs3)cc2)cc1
inactive: dose: 50.0 mg/kg/injection, schedule: Q01DX005 (ip), vehicle: saline with Tween-80 98 % of control | dose: 100.0 mg/kg/injection, schedule: Q01DX005 (ip), vehicle: saline with Tween-80 101 % of control | dose: 200.0 mg/kg/injection, schedule: Q01DX005 (ip), vehicle: saline with Tween-80 96 % of control

O=C1C(Cl)=C(Cl)C(Cl)(Cl)C(Cl)=C1Cl
inactive: [1] 99 % of control | dose: 50.0 mg/kg/injection, schedule: Q01DX001 (ip), vehicle: Klucel (hydroxypropylcellulose) (HPC) 93 % of control | dose: 100.0 mg/kg/injection, schedule: Q01DX001 (ip), vehicle: Klucel (hydroxypropylcellulose) (HPC) 93 % of control

NOCc1ccc(CON)cc1
inactive: [2] 95 % of control | [3] 95 % of control | [4] 91 % of control

Cc1cccc(Cl)c1NC(=O)CS
inactive: [5] 100 % of control | [6] 104 % of control | [7] 100 % of control

CC1(C)COC(c2cccc3c2C2C=CC3O2)=N1 (stereo not drawn)
inactive: [8] 92 % of control | [9] 97 % of control | [10] 108 % of control

CCCCN=C(N)N/N=C/c1c2ccccc2c(C)c2ccccc12
inactive: dose: 12.5 mg/kg/injection, schedule: Q04DX002 (ip), vehicle: saline with Tween-80 104 % of control | dose: 25.0 mg/kg/injection, schedule: Q04DX002 (ip), vehicle: saline with Tween-80 104 % of control | dose: 50.0 mg/kg/injection, schedule: Q04DX002 (ip), vehicle: saline with Tween-80 104 % of control

CC(C)n1c(=S)[nH]c2ccccc2c1=O
inactive: [3] 90 % of control | [5] 95 % of control | [4] 90 % of control | [6] 95 % of control | dose: 400.0 mg/kg/injection, schedule: Q01DX009 (ip), vehicle: saline with Tween-80 95 % of control | [7] 91 % of control

O=C(Nc1ccc(Cl)cc1)Nc1nccs1
inactive: dose: 12.5 mg/kg/injection, schedule: Q01DX009 (ip), vehicle: distilled water + Tween-80 100 % of control | dose: 25.0 mg/kg/injection, schedule: Q01DX009 (ip), vehicle: distilled water + Tween-80 109 % of control | dose: 50.0 mg/kg/injection, schedule: Q01DX009 (ip), vehicle: distilled water + Tween-80 111 % of control | dose: 100.0 mg/kg/injection, schedule: Q01DX009 (ip), vehicle: distilled water + Tween-80 118 % of control

CCn1c2ccccc2n2c(=O)c(Cc3ccccc3)c(C)c(C#N)c12
inactive: dose: 15.0 mg/kg/injection, schedule: Q01DX005 (ip), vehicle: saline with Tween-80 92 % of control | [11] 91 % of control | [8] 88 % of control and 89 % of control | [10] 86 % of control

Cn1ccnc1[Si](C)(C)C
inactive: [8] 101 % of control | [9] 107 % of control | [10] 99 % of control

c1ccc2oc(NCCSSCCNc3nc4ccccc4o3)nc2c1
inactive: dose: 12.5 mg/kg/injection, schedule: Q01DX009 (ip), vehicle: other 100 % of control | dose: 25.0 mg/kg/injection, schedule: Q01DX009 (ip), vehicle: other 92 % of control | dose: 50.0 mg/kg/injection, schedule: Q01DX009 (ip), vehicle: other 86 % of control and 93 % of control

CCCC/C=C/C=C/C=C/CCCCCCCC(=O)OC(COC(=O)CCCCCCC/C=C/C1C=CC(CCCC)C(C(=O)O)C1C(=O)O)COC(=O)CCCCCCC/C=C/C1C=CC(CCCC)C(C(=O)O)C1C(=O)O (stereo not drawn)
inactive: dose: 50.0 mg/kg/injection, schedule: Q01DX009 (ip), vehicle: Klucel (hydroxypropylcellulose) (HPC) 101 % of control | dose: 100.0 mg/kg/injection, schedule: Q01DX009 (ip), vehicle: Klucel (hydroxypropylcellulose) (HPC) 111 % of control | dose: 200.0 mg/kg/injection, schedule: Q01DX009 (ip), vehicle: Klucel (hydroxypropylcellulose) (HPC) 108 % of control

CCC[N+]1(CC)CCCCC1
inactive: dose: 3.12 mg/kg/injection, schedule: Q01DX009 (ip), vehicle: saline 103 % of control | dose: 6.25 mg/kg/injection, schedule: Q01DX009 (ip), vehicle: saline 99 % of control | dose: 12.5 mg/kg/injection, schedule: Q01DX009 (ip), vehicle: saline 100 % of control

CCCCCCC[As](C)(=O)O
inactive: dose: 12.5 mg/kg/injection, schedule: Q01DX001 (ip), vehicle: Klucel (hydroxypropylcellulose) (HPC) 104 % of control | [1] 111 % of control | dose: 400.0 mg/kg/injection, schedule: Q01DX001 (ip), vehicle: Klucel (hydroxypropylcellulose) (HPC) 96 % of control

COc1ccc2nc3c(=O)[nH]c(=O)nc-3n(CC(O)C(O)C(O)CO)c2c1 (stereo not drawn)
inactive: dose: 25.0 mg/kg/injection, schedule: Q01DX001 (ip), vehicle: saline 104 % of control | dose: 50.0 mg/kg/injection, schedule: Q01DX001 (ip), vehicle: saline 104 % of control | dose: 100.0 mg/kg/injection, schedule: Q01DX001 (ip), vehicle: saline 107 % of control | dose: 100.0 mg/kg/injection, schedule: Q04DX002 (ip), vehicle: saline 109 % of control

CC1(C)COC(CCCCCO)=N1
inactive: [2] 103 % of control | [3] 97 % of control | [4] 92 % of control

COc1ccc(Br)cc1C(Nc1nncs1)Nc1nncs1
inactive: [11] 93 % of control | [8] 87 % of control and 89 % of control | [9] 92 % of control | [10] 90 % of control

O=C(CCl)Nc1cccc(CCC(=O)c2ccccc2NC(=O)CCl)c1
inactive: dose: 15.0 mg/kg/injection, schedule: Q01DX005 (ip), vehicle: saline 102 % of control | dose: 30.0 mg/kg/injection, schedule: Q01DX005 (ip), vehicle: saline 106 % of control | [8] 100 % of control | [12] 100 % of control

Nc1c(S(=O)(=O)O)cc(Nc2cccc(S(=O)(=O)/C=C/S(=O)(=O)O)c2)c2c1C(=O)c1ccccc1C2=O
inactive: [12] 99 % of control | dose: 120.0 mg/kg/injection, schedule: Q01DX005 (ip), vehicle: saline 104 % of control | dose: 240.0 mg/kg/injection, schedule: Q01DX005 (ip), vehicle: saline 111 % of control

CC1(C)N=C(N)N=C(N)N1c1ccc(CCc2ccc(S(=O)(=O)F)cc2)c(Cl)c1
inactive: dose: 25.0 mg/kg/injection, schedule: Q04DX003 (ip), vehicle: saline with Tween-80 118 % of control | dose: 33.0 mg/kg/injection, schedule: Q04DX003 (ip), vehicle: saline sonified 118 % of control | dose: 50.0 mg/kg/injection, schedule: Q04DX003 (ip), vehicle: saline sonified 118 % of control | [5] 113 % of control
